Laboratory results from patent US20260176266A1, “PIPERIDINOPYRIMIDINE DERIVATIVE, PREPARATION METHOD THEREFOR AND USE THEREOF IN MEDICINE” (TUOJIE BIOTECH (SHANGHAI) CO., LTD., priority 2022, published 2026).
Each block holds one molecule with its values, some of them ahead of it.

Legend:
Format in all cases: cell-based
[1] = test system: OVCAR3 ovarian cancer cells; assay: Inhibitory activity against ovarian cancer cells (OVCAR3), CellTiter-Glo viability; conditions: Homo sapiens, OVCAR-3, 120 h, OVCAR3, 5 days treatment
Method: OVCAR3 ovarian cancer cells were cultured in a cell incubator at […] with 5% CO2 using RPMI 1640 medium with […]. On the first day, the cells were plated in a 96-well plate at a cell concentration of 2500 cells/well and cultured overnight in the incubator. On the second day, the cells were treated with compounds. The maximum compound concentration was 10 μM and was 3-fold diluted to obtain 9 concentrations, and the final concentration of DMSO was 0.1%. After the cells were cultured in the incubator for another 5 days, cell viability was tested using the Celltiter Glo assay kit (Promega), and the testing method was consistent with the operational method provided by the kit. Data were processed using GraphPad Prism 8, and IC50 was calculated.
[formula] • X: the logarithm of the compound concentration; Y: % inhibition.

[2] = test system: MCF7 breast cancer cells; assay: Inhibitory activity against tumor cells, CellTiter-Glo: MCF7; conditions: Homo sapiens, 168 h, MCF7, 7 days treatment
Method: (§1) MCF7 (ATCC #HTB-22) and T47D (ATCC #HTB-133) breast cancer cells and PANC-1 (ATCC #CRL-1469) pancreatic cancer cells were purchased from ATCC. MDA-MB-231 (Cobioer #CBP60382), HCC1806 (Cobioer #CBP60373), and MDA-MB-468 (Cobioer #CBP60387) breast cancer cells, HCT-116 (Cobioer #CBP60028) colorectal cancer cells, and OCI-AML-3 (Cobioer #CBP60817) and MV-4-11 (Cobioer #CBP60522) leukemia cells were purchased from Nanjing Cobioer Biosciences Co., Ltd.
(§2) OCI-AML-3 was cultured in RPMI 1640 medium with 20% FBS; HCC1806 and T47D were cultured in RPMI 1640 medium with 10% FBS; MCF7, MDA-MB-231, MDA-MB-468, and PANC-1 were cultured in DMEM medium with 10% FBS; MV-4-11 was cultured in IMDM medium with 20% FBS; HCT-116 was cultured in MC′5A medium with 10% FBS.
(§3) Palbociclib-resistant cells were constructed on MCF7 parent cells, designated MCF7 Palbo-R, and the culture conditions were consistent with those of the parent cells. All tumor cells were cultured in a cell incubator at 37° C. with 5% CO2. The cells were seeded at corresponding cell densities (600 cells/well for MDA-MB-231; 500 cells/well for MDA-MB-468, PANC-1, and HCT-116; 200 cells/well for MCF7 and HCC1806; 800 cells/well for MCF7 Palbo-R; 3000 cells/well for OCI-AML-3 and MV-4-11) in 384-well plates and cultured overnight in the incubator. On the second day, the cells were treated with compounds. The maximum compound concentration was 10 μM and was 3-fold diluted to obtain 9 concentrations, each tested in duplicate, and the final concentration of DMSO was 0.1%. The cells continued to be cultured in the incubator, with MDA-MB-231, PANC-1, MDA-MB-468, OCI-AML-3, and MV-4-11 being treated with drugs for 5 days and HCC1806, MCF7, MCF7 Palbo-R, and HCT116 being treated with drugs for 7 days. Cell viability was tested using the Celltiter Glo assay kit (Promega), and the testing method was consistent with the operational method provided by the kit. Readings were taken using an Envision multimode microplate reader. Data were processed using GraphPad Prism 8, and IC50 was calculated. […]

[3] = test system: MCF7 Palbo-R (palbociclib-resistant cells constructed on MCF7); assay: Inhibitory activity against tumor cells, CellTiter-Glo: MCF7 Palbo-R; conditions: Homo sapiens, 168 h, 7 days treatment
Method: as §1, §2, §3

[4] = test system: T47D breast cancer cells; assay: Inhibitory activity against tumor cells, CellTiter-Glo: T47D; conditions: Homo sapiens
Method: as §1, §2
(§4) Palbociclib-resistant cells were constructed on MCF7 parent cells, designated MCF7 Palbo-R, and the culture conditions were consistent with those of the parent cells. All tumor cells were cultured in a cell incubator at 37° C. with 5% CO2. The cells were seeded at corresponding cell densities (600 cells/well for MDA-MB-231; 500 cells/well for MDA-MB-468, PANC-1, and HCT-116; 200 cells/well for MCF7 and HCC1806; 800 cells/well for MCF7 Palbo-R; 3000 cells/well for OCI-AML-3 and MV-4-11) in 384-well plates and cultured overnight in the incubator. On the second day, the cells were treated with compounds. The maximum compound concentration was 10 μM and was 3-fold diluted to obtain 9 concentrations, each tested in duplicate, and the final concentration of DMSO was 0.1%. The cells continued to be cultured in the incubator, with MDA-MB-231, PANC-1, MDA-MB-468, OCI-AML-3, and MV-4-11 being treated with drugs for 5 days and HCC1806, MCF7, MCF7 Palbo-R, and HCT116 being treated with drugs for 7 days. Cell viability was tested using the Celltiter Glo assay kit (Promega), and the testing method was consistent with the operational method provided by the kit. Readings were taken using an Envision multimode microplate reader. Data were processed using GraphPad Prism 8, and IC50 was calculated.
(§5) Y=Bottom+(Top−Bottom)/(1+10^((Log IC50−X)×HillSlope)). Calculation formula: • X: the logarithm of the compound concentration; Y: % inhibition.

[5] = test system: PANC-1 pancreatic cancer cells; assay: Inhibitory activity against tumor cells, CellTiter-Glo: PANC-1; conditions: Homo sapiens, 120 h, PANC-1, 5 days treatment
Method: as §1, §2, §3

[6] = test system: MDA-MB-231 breast cancer cells; assay: Inhibitory activity against tumor cells, CellTiter-Glo: MDA-MB-231; conditions: Homo sapiens, 120 h, MDA-MB-231, 5 days treatment
Method: as §1, §2, §3

[7] = test system: HCC1806 breast cancer cells; assay: Inhibitory activity against tumor cells, CellTiter-Glo: HCC1806; conditions: Homo sapiens, 168 h, HCC1806, 7 days treatment
Method: as §1, §2, §3

[8] = test system: MDA-MB-468 breast cancer cells; assay: Inhibitory activity against tumor cells, CellTiter-Glo: MDA-MB-468; conditions: Homo sapiens, 120 h, MDA-MB-468, 5 days treatment
Method: as §1, §2, §3

[9] = test system: HCT-116 colorectal cancer cells; assay: Inhibitory activity against tumor cells, CellTiter-Glo: HCT-116; conditions: Homo sapiens, 168 h, HCT-116, 7 days treatment
Method: as §1, §2, §4, §5

[10] = test system: OCI-AML-3 leukemia cells; assay: Inhibitory activity against tumor cells, CellTiter-Glo: OCI-AML-3; conditions: Homo sapiens, 120 h, OCI-AML-3, 5 days treatment
Method: as §1, §2, §3

[11] = test system: MV-4-11 leukemia cells; assay: Inhibitory activity against tumor cells, CellTiter-Glo: MV-4-11; conditions: Homo sapiens, MV4-11, 120 h, MV-4-11, 5 days treatment
Method: as §1, §2, §3

[12] = test system: various tumor cell lines; assay: Inhibitory activity against tumor cells, summary over the panel of Tables 4 and 5; conditions: summary of Tables 4 and 5
Method: as §1, §2, §4, §5

Compound: [2H]C([2H])([2H])N(C[C@@H](NC(=O)N1Cc2nc(NCc3ccn(C)n3)ncc2C[C@H]1C)c1ccccc1)C([2H])([2H])[2H] [Example 12, (R)—N—((S)-2-(Bis(methyl-d3)amino)-1-phenylethyl)-6-methyl-2-(((1-methyl-1H-pyrazol-3-yl)methyl)amino)-5,8-dihydropyrido[3,4-d]pyrimidine-7(6H)-carboxamide]
- IC50 [1]: 33.9 nM
- IC50 [2]: 21.7 nM
- IC50 [3]: 43.3 nM
- IC50 [4]: 41.5 nM
- IC50 [5]: 50.3 nM
- IC50 [6]: 25.8 nM
- IC50 [7]: 28.5 nM
- IC50 [8]: 32.4 nM
- IC50 [9]: 66 nM
- IC50 [10]: 47.1 nM
- IC50 [11]: 27.3 nM
- inhibitory activity against the various tumor cell lines (in words) [12]: high inhibitory activity

Compound: C[C@@H]1Cc2cnc(NC3Cc4ccccc4C3)nc2CN1C(=O)N[C@H](CN(C)C)c1ccccc1 [Example 7, (R)-2-((2,3-Dihydro-1H-inden-2-yl)amino)-N—((S)-2-(dimethylamino)-1-phenylethyl)-6-methyl-5,8-dihydropyrido[3,4-d]pyrimidine-7(6H)-carboxamide]
- IC50 [1]: 6.44 nM

- IC50 [1]: 26.1 nM
- IC50 [4]: 14.1 nM
- IC50 [9]: 29.2 nM
Compound: [2H]C([2H])([2H])N(C[C@@H](NC(=O)N1Cc2nc(N[C@@H](C)c3ccccn3)ncc2C[C@H]1C)c1ccccc1)C([2H])([2H])[2H] [Example 19, (R)—N—((S)-2-(Bis(methyl-d3)amino)-1-phenylethyl)-6-methyl-2-(((S)-1-(pyridin-2-yl)ethyl)amino)-5,8-dihydropyrido[3,4-d]pyrimidine-7(6H)-carboxamide]
- inhibitory activity against the various tumor cell lines (in words) [12]: high inhibitory activity

- IC50 [1]: 13.8 nM
Compound: C[C@H](Nc1ncc2c(n1)CN(C(=O)N[C@H](CN(C)C)c1ccccc1)[C@H](C)C2)c1ccccc1 [Example 9, (R)—N—((S)-2-(Dimethylamino)-1-phenylethyl)-6-methyl-2-(((S)-1-phenylethyl)amino)-5,8-dihydropyrido[3,4-d]pyrimidine-7(6H)-carboxamide]

Compound: C[C@@H]1Cc2cnc(NCc3ccn(C)n3)nc2CN1C(=O)N[C@H](CN(C)C)c1cccc(Cl)c1 [Example 13, (R)—N—((S)-1-(3-Chlorophenyl)-2-(dimethylamino)ethyl)-6-methyl-2-(((1-methyl-TH-pyrazol-3-yl)methyl)amino)-5,8-dihydropyrido[3,4-d]pyrimidine-7(6H)-carboxamide]
- IC50 [1]: 21.7 nM

- IC50 [1]: 58.3 nM
Compound: CCN(C)C[C@@H](NC(=O)N1Cc2nc(NCc3ccn(C)n3)ncc2C[C@H]1C)c1ccccc1 [Example 8, (R)—N—((S)-2-(Ethyl(methyl)amino)-1-phenylethyl)-6-methyl-2-(((1-methyl-1H-pyrazol-3-yl)methyl)amino)-5,8-dihydropyrido[3,4-d]pyrimidine-7(6H)-carboxamide]

- IC50 [1]: 26.7 nM
Compound: Cc1cc(Nc2ncc3c(n2)CN(C(=O)N[C@H](CN(C)C)c2ccccc2)[C@H](C)C3)ccn1 [Example 15, (R)—N—((S)-2-(Dimethylamino)-1-phenylethyl)-6-methyl-2-((2-methylpyridin-4-yl)amino)-5,8-dihydropyrido[3,4-d]pyrimidine-7(6H)-carboxamide]

- IC50 [1]: 81.2 nM
Compound: C[C@@H]1Cc2cnc(N[C@H](C)c3ccccc3)nc2CN1C(=O)N[C@H](CN(C)C)c1ccccc1 [Example 5, (R)—N—((S)-2-(Dimethylamino)-1-phenylethyl)-6-methyl-2-(((R)-1-phenylethyl)amino)-5,8-dihydropyrido[3,4-d]pyrimidine-7(6H)-carboxamide]

- IC50 [1]: 22.5 nM
Compound: C[C@@H]1Cc2cnc(Nc3cnn(C)c3)nc2CN1C(=O)N[C@H](CN(C)C)c1ccccc1 [Example 17, (R)—N—((S)-2-(Dimethylamino)-1-phenylethyl)-6-methyl-2-((1-methyl-1H-pyrazol-4-yl)amino)-5,8-dihydropyrido[3,4-d]pyrimidine-7(6H)-carboxamide]

- IC50 [1]: 9.99 nM
Compound: C[C@@H]1Cc2cnc(Nc3cnn(CC4CC4)c3)nc2CN1C(=O)N[C@H](CN(C)C)c1ccccc1 [Example 16, (R)-2-((1-(Cyclopropylmethyl)-1H-pyrazol-4-yl)amino)-N—((S)-2-(dimethylamino)-1-phenylethyl)-6-methyl-5,8-dihydropyrido[3,4-d]pyrimidine-7(6H)-carboxamide]

- IC50 [1]: 42.6 nM
Compound: CC1Cc2cnc(NC3CCOCC3)nc2CN1C(=O)N[C@H](CN(C)C)c1ccccc1 (stereo partly drawn) [Example 10, N—((S)-2-(Dimethylamino)-1-phenylethyl)-6-methyl-2-((tetrahydro-2H-pyran-4-yl)amino)-5,8-dihydropyrido[3,4-d]pyrimidine-7(6H)-carboxamide]

- IC50 [1]: 11.5 nM
Compound: C#Cc1cccc([C@@H]2CN(C)CC[C@H]2C(=O)N2Cc3nc(NCc4ccn(C)n4)ncc3C[C@H]2C)c1 [Compound 1-2, ((3R,4R)-3-(3-Ethynylphenyl)-1-methylpiperidin-4-yl)((R)-6-methyl-2-(((1-methyl-1H-pyrazol-3-yl)methyl)amino)-5,8-dihydropyrido[3,4-d]pyrimidin-7(6H)-yl)methanone]

- IC50 [1]: 40.5 nM
Compound: [2H]C([2H])([2H])n1ccc(CNc2ncc3c(n2)CN(C(=O)N[C@H](CN(C)C)c2ccccc2)[C@H](C)C3)n1 [Example 14, (R)—N—((S)-2-(Dimethylamino)-1-phenylethyl)-6-methyl-2-(((1-(methyl-d3)-1H-pyrazol-3-yl)methyl)amino)-5,8-dihydropyrido[3,4-d]pyrimidine-7(6H)-carboxamide]
